Patent publication US20250197248A1, “WATER TREATMENT SYSTEM” (KEMIRA OYJ, priority 2022, published 2025)

Tests used:
[1] = Residual PFA over time in dosed wastewater samples (CHEMetrics test kit); assay type: physicochemical; details: doses 0.5, 1 and 2 ppm; S2 samples versus S1 samples; FIG. 5
Procedure: Varying doses of PFA (0.5 ppm, 1 ppm, and 2 ppm) were dosed into S1 and S2 wastewater samples as described in Example 1. Residual levels of PFA were measured using a CHEMetrics test kit for PAA with vacuum ampules detecting in the 0-5 ppm range (Maffettone, 2020). PFA values were obtained by multiplying the PAA results by 0.82 (Maffettone, 2020). The factor of 0.82 for conversion of PAA to PFA corresponds to the molecular weight ratio of PFA (62.02 g/mol) to PAA (76.05 g/mol). Due to the fast degradation of PFA, residual PFA concentrations were determined immediately following the sample collection.

fecal coliform = assay: Disinfection efficacy of PFA in wastewater samples, colony count (USEPA method 10029); assay type: cell-based; details: S2 (50% secondary + 50% primary-only wastewater, 30 min contact) versus S1 (secondary-treated wastewater, 90 min contact); FIG. 4A
Procedure: (§1) The disinfection efficacy of PFA against fecal coliform and E. coli was assessed in wastewater (WW) that had undergone secondary treatment (S1), and in a mixed wastewater sample comprising 50% wastewater that had undergone secondary treatment and 50% wastewater that had undergone primary treatment without secondary treatment (S2). The S2 sample would have inevitably contained higher levels of TSS, increased organic matter and increased microbial content.
(§2) WW samples were collected and stored at 4° C. […] until use (within 1 to 3 days). A PFA solution was prepared immediately prior to use by mixing 2.5 mL of 35% hydrogen peroxide with 2.5 mL of DEX®-A375 (a mixture of formic and sulfuric acids). The resultant mixture was incubated for 5 minutes at 4° C. and subsequently for 25 minutes at room temperature to complete formation of the 9.5% PFA solution. The 9.5% PFA solution was diluted to 950 mg/L by adding 0.2 mL of the 9.5% PFA solution to 19.8 mL distilled water.
(§3) WW samples were dosed with PFA to determine efficacy after set contact times. A shorter 30 minute contact time was used for the S2 samples to emulate the shorter contact times that would occur in a CSO event when the volume and rate of flow of water through the WW treatment system is increased. […] After incubation, the number of colonies was counted. […]

E. coli = assay: as above; assay type: cell-based; details: S2 (50% secondary + 50% primary-only wastewater, 30 min contact) versus S1 (secondary-treated wastewater, 90 min contact); FIG. 4B
Procedure: as §1, §2, §3

With `O=COO` [PFA, performic acid] the “residual PFA levels over time (degradation in wastewater)” value [1] was “decrease more rapidly over time in S2 samples than in S1 samples”, the “disinfection efficacy against fecal coliform” value (fecal coliform) was “significantly reduced” and the “disinfection efficacy against E. coli” value (E. coli) was “significantly reduced”.
